Common to all, as to test: biochemical
Common to all, as to design: KINOMEscan competition binding panel (Eurofins DiscoverX), single concentration, percent inhibition
Holding throughout (settings): read-out: 15 at 1 µM % inhibition

For one assay, the target named is EGFR(G719C) (Homo sapiens, UniProt P00533, G719C). An outline of the steps:
(§1)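 KINOMEscan selectivity screen; >400 human kinases; compound at 1 µM, single concentration.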

The target in a further assay is FLT3(ITD,F691L) (Homo sapiens, UniProt P36888, F691L/ITD). An outline of the steps:
as §1

The next assay has as its target T1, PYK2 (Homo sapiens, UniProt Q14289).
T1 construct: gene PTK2B
An outline of the steps: as §1

Another assay concerns the target WEE2 (Homo sapiens, UniProt P0C1S8). An outline of the steps:
as §1

For the next assay, the target named is T2, DRAK2 (Homo sapiens, UniProt O94768).
T2 construct: gene STK17B
An outline of the steps: as §1

A further assay addresses PRKCE (Homo sapiens, UniProt Q02156). The essentials: as §1
Another assay has as its target T3, MRCKB (Homo sapiens, UniProt Q9Y5S2).
T3 construct: gene CDC42BPB
An outline of the steps:
as §1

A further assay concerns the target CDKL2 (Homo sapiens, UniProt Q92772). The essentials:
as §1

Assay [1] concerns the target EGFR(L747-E749del, A750P) (Homo sapiens, UniProt P00533, A750P/DEL747-749). An outline of the steps:
as §1

A further assay deals with BTK (Homo sapiens, UniProt Q06187). The essentials:
as §1

The target of a further assay is T4, PCTK3 (Homo sapiens, UniProt Q07002).
T4 construct: gene CDK18
An outline of the steps:
as §1

In the next assay the target is AAK1 (Homo sapiens, UniProt Q2M2I8). The essentials: as §1
The next assay concerns the target MYLK (Homo sapiens, UniProt Q15746). The essentials: as §1
Assay [2] deals with T5, RSK1(Kin.Dom.2-C-terminal) (Homo sapiens, UniProt Q15418).
T5 construct: gene RPS6KA1; Kin.Dom.2-C-terminal
The essentials:
as §1

The target in a further assay is TAOK3 (Homo sapiens, UniProt Q9H2K8). The essentials: as §1
Assay [3] deals with T6, RSK3(Kin.Dom.1-N-terminal) (Homo sapiens, UniProt Q15349).
T6 construct: gene RPS6KA2; Kin.Dom.1-N-terminal
The essentials:
as §1

The target of the next assay is DYRK1B (Homo sapiens, UniProt Q9Y463). An outline of the steps: as §1
The next assay deals with FGR (Homo sapiens, UniProt P09769). The essentials:
as §1

A further assay deals with ROCK2 (Homo sapiens, UniProt O75116). The essentials:
as §1

A further assay deals with HIPK4 (Homo sapiens, UniProt Q8NE63). An outline of the steps: as §1
Another assay deals with PIK3CA(M1043I) (Homo sapiens, UniProt P42336, M1043I). An outline of the steps:
as §1

The next assay addresses T7, IKK-alpha (Homo sapiens, UniProt O15111).
T7 construct: gene CHUK
The essentials: as §1

The next assay deals with T8, ZAK (Homo sapiens, UniProt Q9NYL2).
T8 construct: gene MAP3K20
An outline of the steps: as §1

Structures are written as SMILES.

Sequence of FLT3(ITD,F691L) (P36888 564-993 F691L): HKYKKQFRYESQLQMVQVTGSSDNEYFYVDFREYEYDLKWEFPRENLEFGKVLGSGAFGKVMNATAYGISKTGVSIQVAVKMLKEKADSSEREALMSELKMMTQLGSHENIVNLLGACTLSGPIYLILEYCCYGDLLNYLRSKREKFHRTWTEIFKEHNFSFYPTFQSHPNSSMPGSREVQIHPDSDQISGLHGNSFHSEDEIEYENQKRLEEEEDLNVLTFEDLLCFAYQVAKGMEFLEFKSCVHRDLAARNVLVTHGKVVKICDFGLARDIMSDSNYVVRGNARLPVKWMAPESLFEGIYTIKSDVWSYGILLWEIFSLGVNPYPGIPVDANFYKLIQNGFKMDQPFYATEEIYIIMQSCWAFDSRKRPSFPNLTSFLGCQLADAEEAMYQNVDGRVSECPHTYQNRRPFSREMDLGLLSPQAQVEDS
T5 sequence (Q15418 whole entry): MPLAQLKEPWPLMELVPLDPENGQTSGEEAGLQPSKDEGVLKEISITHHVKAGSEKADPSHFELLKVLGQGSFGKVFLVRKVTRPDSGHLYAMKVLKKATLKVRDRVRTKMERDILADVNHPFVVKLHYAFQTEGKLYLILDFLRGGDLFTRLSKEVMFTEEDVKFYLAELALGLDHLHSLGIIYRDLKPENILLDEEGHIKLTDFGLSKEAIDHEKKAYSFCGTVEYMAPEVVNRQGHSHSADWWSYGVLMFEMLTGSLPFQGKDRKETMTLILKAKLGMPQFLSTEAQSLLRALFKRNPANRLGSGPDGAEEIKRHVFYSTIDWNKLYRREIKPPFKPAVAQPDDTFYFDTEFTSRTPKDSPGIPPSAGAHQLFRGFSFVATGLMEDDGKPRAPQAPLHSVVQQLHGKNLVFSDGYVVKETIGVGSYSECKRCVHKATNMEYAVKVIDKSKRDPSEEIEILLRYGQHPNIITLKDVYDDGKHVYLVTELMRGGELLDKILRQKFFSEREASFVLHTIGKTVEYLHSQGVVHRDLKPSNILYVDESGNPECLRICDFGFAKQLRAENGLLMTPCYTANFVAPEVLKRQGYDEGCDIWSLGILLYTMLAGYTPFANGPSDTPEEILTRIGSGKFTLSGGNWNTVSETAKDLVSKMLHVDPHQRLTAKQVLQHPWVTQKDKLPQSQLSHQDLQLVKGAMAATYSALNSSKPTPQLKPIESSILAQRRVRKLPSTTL
T7 sequence (O15111 whole entry): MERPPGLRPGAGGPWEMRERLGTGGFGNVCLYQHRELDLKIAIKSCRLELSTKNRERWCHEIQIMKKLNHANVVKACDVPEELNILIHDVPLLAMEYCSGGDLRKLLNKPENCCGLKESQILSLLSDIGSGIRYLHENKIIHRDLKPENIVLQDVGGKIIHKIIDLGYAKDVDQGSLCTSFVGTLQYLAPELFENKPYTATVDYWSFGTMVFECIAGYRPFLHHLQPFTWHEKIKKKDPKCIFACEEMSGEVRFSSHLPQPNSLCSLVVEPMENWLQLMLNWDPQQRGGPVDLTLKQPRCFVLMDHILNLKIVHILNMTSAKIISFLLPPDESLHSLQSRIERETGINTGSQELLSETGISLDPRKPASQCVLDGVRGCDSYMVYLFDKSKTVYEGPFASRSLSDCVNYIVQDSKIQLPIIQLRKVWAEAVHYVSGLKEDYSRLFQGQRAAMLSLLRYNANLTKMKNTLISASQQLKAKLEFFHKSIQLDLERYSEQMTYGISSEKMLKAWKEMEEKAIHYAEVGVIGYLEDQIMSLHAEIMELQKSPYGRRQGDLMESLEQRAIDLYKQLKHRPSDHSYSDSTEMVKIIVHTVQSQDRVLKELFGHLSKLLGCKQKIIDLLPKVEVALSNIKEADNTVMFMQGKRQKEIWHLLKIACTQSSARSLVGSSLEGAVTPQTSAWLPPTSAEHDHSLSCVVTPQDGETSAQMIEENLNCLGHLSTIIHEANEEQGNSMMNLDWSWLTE
Sequence of BTK (Q06187 whole entry): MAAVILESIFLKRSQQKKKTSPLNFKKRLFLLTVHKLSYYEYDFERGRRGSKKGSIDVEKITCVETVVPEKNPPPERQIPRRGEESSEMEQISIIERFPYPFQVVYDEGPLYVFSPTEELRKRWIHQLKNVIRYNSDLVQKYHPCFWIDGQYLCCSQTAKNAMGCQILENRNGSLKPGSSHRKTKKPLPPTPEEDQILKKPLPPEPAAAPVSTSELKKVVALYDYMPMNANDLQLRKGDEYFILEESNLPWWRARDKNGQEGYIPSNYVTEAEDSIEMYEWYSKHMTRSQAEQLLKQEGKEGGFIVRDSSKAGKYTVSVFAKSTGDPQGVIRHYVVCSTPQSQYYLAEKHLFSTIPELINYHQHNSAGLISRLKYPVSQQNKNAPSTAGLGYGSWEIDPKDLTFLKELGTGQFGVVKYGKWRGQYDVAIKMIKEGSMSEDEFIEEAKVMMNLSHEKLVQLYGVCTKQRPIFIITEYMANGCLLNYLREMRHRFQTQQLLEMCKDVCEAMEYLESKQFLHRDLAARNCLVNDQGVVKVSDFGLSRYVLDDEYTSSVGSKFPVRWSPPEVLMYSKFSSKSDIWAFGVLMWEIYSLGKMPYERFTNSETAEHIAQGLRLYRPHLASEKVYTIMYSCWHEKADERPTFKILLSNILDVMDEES
Sequence of FGR (P09769 whole entry): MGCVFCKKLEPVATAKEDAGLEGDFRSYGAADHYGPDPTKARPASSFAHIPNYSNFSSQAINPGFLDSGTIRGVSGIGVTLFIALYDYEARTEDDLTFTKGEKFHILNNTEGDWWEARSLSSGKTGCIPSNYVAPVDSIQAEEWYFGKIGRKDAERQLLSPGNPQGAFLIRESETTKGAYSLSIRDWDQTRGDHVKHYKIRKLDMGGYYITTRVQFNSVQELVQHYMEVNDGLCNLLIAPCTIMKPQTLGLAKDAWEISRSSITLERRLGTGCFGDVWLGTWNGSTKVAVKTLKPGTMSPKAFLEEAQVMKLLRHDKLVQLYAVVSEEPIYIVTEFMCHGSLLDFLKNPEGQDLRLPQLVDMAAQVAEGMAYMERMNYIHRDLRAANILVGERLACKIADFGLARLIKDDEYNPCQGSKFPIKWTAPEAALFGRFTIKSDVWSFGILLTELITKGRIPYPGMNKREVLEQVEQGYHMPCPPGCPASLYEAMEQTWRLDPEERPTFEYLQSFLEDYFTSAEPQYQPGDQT
T6 sequence (Q15349 whole entry): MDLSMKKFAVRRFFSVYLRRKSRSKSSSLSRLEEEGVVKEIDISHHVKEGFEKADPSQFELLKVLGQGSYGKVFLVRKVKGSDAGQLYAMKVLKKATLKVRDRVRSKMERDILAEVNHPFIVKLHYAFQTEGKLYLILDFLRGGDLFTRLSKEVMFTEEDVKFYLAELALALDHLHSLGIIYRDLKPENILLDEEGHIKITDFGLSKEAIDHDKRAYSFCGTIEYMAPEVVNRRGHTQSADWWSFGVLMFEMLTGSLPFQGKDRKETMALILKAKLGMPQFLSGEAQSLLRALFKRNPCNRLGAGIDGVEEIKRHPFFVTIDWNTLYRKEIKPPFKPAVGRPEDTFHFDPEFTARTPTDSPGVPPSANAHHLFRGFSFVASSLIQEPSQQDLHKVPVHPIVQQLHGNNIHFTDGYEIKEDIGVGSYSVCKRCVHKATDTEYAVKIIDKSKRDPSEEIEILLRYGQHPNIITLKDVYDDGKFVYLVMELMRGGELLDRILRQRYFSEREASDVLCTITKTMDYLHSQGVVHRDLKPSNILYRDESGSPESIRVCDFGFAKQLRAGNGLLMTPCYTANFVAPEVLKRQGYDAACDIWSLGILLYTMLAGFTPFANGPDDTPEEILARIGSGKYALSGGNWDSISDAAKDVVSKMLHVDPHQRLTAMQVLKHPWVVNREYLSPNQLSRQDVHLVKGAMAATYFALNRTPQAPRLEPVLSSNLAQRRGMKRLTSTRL
Sequence of EGFR(L747-E749del, A750P) (P00533 with tags, fused parts or gaps DEL747-749/A750P): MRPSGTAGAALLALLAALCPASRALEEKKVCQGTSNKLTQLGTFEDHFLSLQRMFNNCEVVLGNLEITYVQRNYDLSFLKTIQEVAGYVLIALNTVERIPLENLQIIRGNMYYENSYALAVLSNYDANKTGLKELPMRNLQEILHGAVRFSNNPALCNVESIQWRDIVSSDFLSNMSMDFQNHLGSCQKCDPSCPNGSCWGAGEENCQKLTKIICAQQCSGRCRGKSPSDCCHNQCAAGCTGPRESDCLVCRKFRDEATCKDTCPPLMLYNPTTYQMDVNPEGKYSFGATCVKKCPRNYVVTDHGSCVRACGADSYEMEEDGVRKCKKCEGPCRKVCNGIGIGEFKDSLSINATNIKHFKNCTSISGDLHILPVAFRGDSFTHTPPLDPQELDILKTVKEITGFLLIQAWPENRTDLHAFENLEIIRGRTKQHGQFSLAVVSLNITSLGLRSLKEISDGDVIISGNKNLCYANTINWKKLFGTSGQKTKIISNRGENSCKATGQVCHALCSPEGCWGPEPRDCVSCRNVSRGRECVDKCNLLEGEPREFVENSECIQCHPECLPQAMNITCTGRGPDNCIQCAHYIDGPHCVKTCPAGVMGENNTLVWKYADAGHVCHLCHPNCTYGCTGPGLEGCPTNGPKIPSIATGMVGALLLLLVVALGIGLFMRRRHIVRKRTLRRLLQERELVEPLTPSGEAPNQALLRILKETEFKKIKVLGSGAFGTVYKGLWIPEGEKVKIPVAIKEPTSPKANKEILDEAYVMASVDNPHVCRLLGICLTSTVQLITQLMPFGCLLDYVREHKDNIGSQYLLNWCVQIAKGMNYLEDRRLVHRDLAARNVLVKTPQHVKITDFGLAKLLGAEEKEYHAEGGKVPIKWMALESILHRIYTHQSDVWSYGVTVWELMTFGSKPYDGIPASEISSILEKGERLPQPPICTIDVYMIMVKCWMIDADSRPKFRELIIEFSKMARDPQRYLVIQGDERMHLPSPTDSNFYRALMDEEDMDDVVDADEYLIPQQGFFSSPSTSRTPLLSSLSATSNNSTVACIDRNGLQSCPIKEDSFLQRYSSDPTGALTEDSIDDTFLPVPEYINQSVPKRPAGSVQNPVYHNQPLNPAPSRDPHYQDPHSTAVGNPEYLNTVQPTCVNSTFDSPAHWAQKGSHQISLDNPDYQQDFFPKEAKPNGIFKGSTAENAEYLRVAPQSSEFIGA

For orientation: inhibition means the share of the control response that was lost under treatment. As to `CNS(=O)(=O)c1ccc(N(C)C)c(Nc2nc(C)nc3cc(OC)c(OC)cc23)c1` [compound 15, 3-((6,7-dimethoxy-2-methylquinazolin-4-yl)amino)-4-(dimethylamino)-N-methylbenzenesulfonamide], the inhibition at 1 µM is 0% at EGFR(G719C); 0% at FLT3(ITD,F691L); 0% at PYK2; 0% on WEE2; 0% at DRAK2; 11% on PRKCE. The inhibition at 1 µM on MRCKB came out at 1%; at CDKL2, 4%; in assay [1], 0%; on BTK, 26%; at PCTK3, 0%; at AAK1, 4%. Besides, the inhibition at 1 µM on MYLK came out at 0%; in [2], 5%; at TAOK3, 16%; in [3], 11%; on DYRK1B it was 17%; on FGR, 0%. Also, the inhibition at 1 µM at ROCK2 came to 5%; at HIPK4, 0%; on PIK3CA(M1043I), 0%; on IKK-alpha it was 33%; at ZAK it was 1%.

The values above are taken from publication PMC7180948, “New Insights into 4-Anilinoquinazolines as Inhibitors of Cardiac Troponin I–Interacting Kinase (TNNi3K)” (Molecules, 2020).
